This is an account of results in patent US8088890B2, “Peptides and peptidomimetic compounds, the manufacturing thereof as well as their use for preparing a therapeutically and/or preventively active pharmaceutical composition” (Fibrex Medical Research & Development GmbH, priority 2008, dated 2012).

This assay deals with RhoA. The assay is described as follows: thrombin induced RhoA activation in human umbilical vein endothelial cell (HUVEC) culture (Rho pull-down, Western blot). The assay is classed as cell-based. The conditions noted are these: 5 U/ml thrombin alone, 5 min. On the procedure: The biological effect of the compounds was established in a model thrombin induced RhoA activation in human umbilical vein endothelial cell (HUVEC) culture.
HUVEC are grown to confluence under standard conditions. Before induction of Rho activity HUVEC were starved for 4 h by using IMDM (Gibco) without growth factor and serum supplements. After the starvation period 5 U/ml Thrombin (Calbiochem) or 5 U thrombin plus 50 μg/ml of test compound are added to the starvation medium for 1, 5 and 10 min. Active RhoA was isolated using Rho Assay Reagent from Upstate according to manufactures instructions. Isolates were separated on a 15% polyacrylamide gel and blotted on Nitrocellulose-Membrane (Bio-Rad). RhoA was detected by using Anti-Rho (-A, -B, -C), clone55 from Upstate (1:500).
(In general: Immunoblotting shows a protein as a band on a membrane.)

thrombin: the “Relative RhoA stimulation compared to unstimulated control” value is recorded as 6.2.
